The target of test [1] is NAD-dependent protein deacylase sirtuin-6 (Homo sapiens, UniProt Q8N6T7). Nature of the test: Inhibition of His6-tagged SIRT6 (unknown origin) desuccinylase activity incubated for 12 mins by HPLC based assay.
In test [2] the target is T1, NAD-dependent protein deacetylase sirtuin-3, mitochondrial (Homo sapiens, UniProt Q9NTG7).
T1 sequence (Q9NTG7 whole entry): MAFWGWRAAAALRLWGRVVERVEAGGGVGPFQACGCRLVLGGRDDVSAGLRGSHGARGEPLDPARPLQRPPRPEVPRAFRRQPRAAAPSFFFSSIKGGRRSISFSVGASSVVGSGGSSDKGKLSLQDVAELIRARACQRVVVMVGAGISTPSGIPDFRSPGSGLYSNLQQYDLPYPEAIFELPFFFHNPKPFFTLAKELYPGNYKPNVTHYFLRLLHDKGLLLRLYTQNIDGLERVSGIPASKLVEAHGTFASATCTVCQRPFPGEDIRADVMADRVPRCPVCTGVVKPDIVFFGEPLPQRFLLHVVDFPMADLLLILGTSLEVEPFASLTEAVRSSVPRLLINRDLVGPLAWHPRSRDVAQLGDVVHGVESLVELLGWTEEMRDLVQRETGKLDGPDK
Nature of the test: Inhibition of His6-tagged SIRT3 (unknown origin) desuccinylase activity incubated for 10 mins by HPLC based assay.

In test [3] the target is T2, NAD-dependent protein deacetylase sirtuin-2 (Homo sapiens, UniProt Q8IXJ6).
T2 sequence (Q8IXJ6 whole entry): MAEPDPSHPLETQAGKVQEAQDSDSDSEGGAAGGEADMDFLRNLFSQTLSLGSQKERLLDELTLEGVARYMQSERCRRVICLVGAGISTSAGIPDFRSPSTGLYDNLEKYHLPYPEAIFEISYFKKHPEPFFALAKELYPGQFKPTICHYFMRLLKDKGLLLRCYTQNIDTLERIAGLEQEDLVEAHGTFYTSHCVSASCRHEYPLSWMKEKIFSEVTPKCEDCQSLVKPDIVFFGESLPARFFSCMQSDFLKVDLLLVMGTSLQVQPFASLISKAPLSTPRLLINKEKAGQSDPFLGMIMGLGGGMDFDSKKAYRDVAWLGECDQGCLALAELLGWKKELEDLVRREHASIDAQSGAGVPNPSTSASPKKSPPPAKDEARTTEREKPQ
Description: Inhibition of His6-tagged SIRT2 (unknown origin) desuccinylase activity incubated for 12 mins by HPLC based assay.

Test [4] concerns the target NAD-dependent protein deacylase sirtuin-5, mitochondrial (Homo sapiens, UniProt Q9NXA8). Description: Inhibition of GST-tagged SIRT5 desuccinylase activity (unknown origin) incubated for 5 mins by HPLC based assay.
The target of test [5] is T3, NAD-dependent protein deacetylase sirtuin-1 (Homo sapiens, UniProt Q96EB6).
T3 sequence (Q96EB6 whole entry): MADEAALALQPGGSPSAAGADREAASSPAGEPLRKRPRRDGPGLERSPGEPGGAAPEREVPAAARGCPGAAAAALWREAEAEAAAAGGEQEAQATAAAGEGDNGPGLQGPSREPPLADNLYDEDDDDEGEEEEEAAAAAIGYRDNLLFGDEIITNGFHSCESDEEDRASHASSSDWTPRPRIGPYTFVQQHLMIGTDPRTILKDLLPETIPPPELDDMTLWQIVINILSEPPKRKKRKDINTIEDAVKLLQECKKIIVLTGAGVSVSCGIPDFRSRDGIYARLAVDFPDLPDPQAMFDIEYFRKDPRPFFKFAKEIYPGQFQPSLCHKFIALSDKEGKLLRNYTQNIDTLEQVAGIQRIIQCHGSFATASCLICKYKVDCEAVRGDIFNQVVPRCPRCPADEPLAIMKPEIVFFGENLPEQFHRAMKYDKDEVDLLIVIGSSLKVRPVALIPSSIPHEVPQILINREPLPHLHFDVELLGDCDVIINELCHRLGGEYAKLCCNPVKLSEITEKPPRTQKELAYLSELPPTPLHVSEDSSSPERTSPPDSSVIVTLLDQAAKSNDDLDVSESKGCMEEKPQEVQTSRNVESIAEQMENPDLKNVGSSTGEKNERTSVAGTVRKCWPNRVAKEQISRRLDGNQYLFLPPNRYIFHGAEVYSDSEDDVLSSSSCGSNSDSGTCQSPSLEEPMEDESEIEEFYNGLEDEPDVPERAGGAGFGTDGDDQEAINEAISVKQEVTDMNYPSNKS
Nature of the test: Inhibition of His6-tagged SIRT1 (unknown origin) desuccinylase activity incubated for 10 mins by HPLC based assay.

Test [6] can be described thus: Cytotoxicity against human PDAC cells assessed as cell viability. The test is classed as functional, cell-based.
The target in test [7] is T2, NAD-dependent protein deacetylase sirtuin-2. Nature of the test: Inhibition of recombinant SIRT2 (unknown origin) using […] as substrate incubated for 4 hrs by homogenous fluorescent deacetylase assay.

*1 amine or outer side, *2 acyl side, *3 side chain or, on linkers, in order; H or OH if unused. Where a SMILES comes first, the peptide text is derived from it. Bridges are numbered along the chain shown (N, C = ends). [ ]: non-standard residue; d: D form. X1 = O=C(O)CCNC(=S)NCCCC[C@H](N[*:1])C(=O)[*:2]; Heptanedioyl = O=C(CCCCCC(=O)[*:2])[*:1]

In general, IC50 refers to the concentration needed to halve the response being measured.

NAD-dependent protein deacylase sirtuin-6, sequence (Q8N6T7 whole entry): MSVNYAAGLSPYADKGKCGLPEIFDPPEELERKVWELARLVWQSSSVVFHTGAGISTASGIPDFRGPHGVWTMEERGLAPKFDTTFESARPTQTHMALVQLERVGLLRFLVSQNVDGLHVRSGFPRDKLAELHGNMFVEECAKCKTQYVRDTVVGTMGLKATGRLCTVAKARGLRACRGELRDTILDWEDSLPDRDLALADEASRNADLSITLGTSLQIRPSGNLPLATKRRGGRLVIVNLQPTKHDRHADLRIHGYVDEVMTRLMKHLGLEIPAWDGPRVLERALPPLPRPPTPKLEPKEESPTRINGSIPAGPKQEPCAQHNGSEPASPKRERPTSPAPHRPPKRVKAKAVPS
NAD-dependent protein deacylase sirtuin-5, mitochondrial, sequence (Q9NXA8 whole entry): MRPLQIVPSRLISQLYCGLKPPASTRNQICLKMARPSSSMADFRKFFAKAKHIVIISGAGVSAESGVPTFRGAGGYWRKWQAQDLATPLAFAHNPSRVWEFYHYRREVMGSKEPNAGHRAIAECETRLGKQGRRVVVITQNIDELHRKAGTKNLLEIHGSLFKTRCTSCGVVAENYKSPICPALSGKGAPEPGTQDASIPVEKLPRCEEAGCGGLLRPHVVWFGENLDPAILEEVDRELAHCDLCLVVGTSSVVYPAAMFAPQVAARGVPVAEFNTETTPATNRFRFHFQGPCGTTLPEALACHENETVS

As to `CC(=O)N[C@H]1CCCCNC(=O)CCCCCC(=O)NCCCC[C@@H](C(=O)N[C@H](C(N)=O)[C@@H](C)O)NC(=O)[C@H](CCCCNC(=S)NCCC(=O)O)NC(=O)[C@H](CCCNC(=N)N)NC1=O` (Ac-KR[X1]KT-NH2; linker 1-4 via Heptanedioyl), the 50% inhibitory concentration (IC50) was more than 1000 µM in test [1]; more than 1000 µM in test [2]; more than 1000 µM in test [3]; 7.5 µM in test [4]; more than 1000 µM in test [5].
`CCOC(=O)C1=CN(C(=O)c2ccccc2)C=C(C(=O)OCC)C1c1cccc(OC)c1`: in test [6], the IC50 is 25.4 µM.
As to `Cc1ccc(C(=O)Nc2ccc(S(=O)(=O)O)c3cc(S(=O)(=O)O)cc(S(=O)(=O)O)c23)cc1NC(=O)c1cccc(NC(=O)Nc2cccc(C(=O)Nc3cc(C(=O)Nc4ccc(S(=O)(=O)O)c5cc(S(=O)(=O)O)cc(S(=O)(=O)O)c45)ccc3C)c2)c1` [SURAMIN], the concentration for half-maximal inhibition (IC50) in test [7] is 1.15 µM.

The record behind these values is ChEMBL document CHEMBL5137064, “Therapeutic Potential and Activity Modulation of the Protein Lysine Deacylase Sirtuin 5” (J Med Chem, 2022).
